From the supplement of paper PMC10307832

What was measured:
Assay in all cases: relative viability (nuclei count vs DMSO), 5 days (fraction); higher = more cells survive
[1] = compound: CC(C)(C)c1cc(NC(=O)Nc2ccc(-c3cn4c(n3)sc3cc(OCCN5CCOCC5)ccc34)cc2)no1 [Quizartinib] + CS(=O)(=O)N1CCN(Cc2cc3nc(-c4cccc5[nH]ncc45)nc(N4CCOCC4)c3s2)CC1 [Pictilisib] (partner 1 µM)
Summary of the method: (§1)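 Values are medians from duplicate plates. Each reflects relative viability, defined as the nuclei count of treated wells over that of vehicle wells. Lung cancer cell lines in 1536-well plates were pin-tool dosed one day after seeding with one drug alone or with a fixed anchor-drug dose plus five library-drug doses (not always all listed) in √10 steps, then fixed, stained and imaged at 4× after 5 days.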

[2] = compound: COCC[n+]1c2c(n(Cc3cnccn3)c1C)C(=O)c1ccccc1C2=O [YM155] + N=C(N)NC(=N)NCCc1ccccc1 [Phenformin] (partner 250 µM)
Summary of the method: as §1

[3] = compound: CC(C)(C)c1cc(NC(=O)Nc2ccc(-c3cn4c(n3)sc3cc(OCCN5CCOCC5)ccc34)cc2)no1 [Quizartinib] + CC(=O)Nc1cccc(-n2c(=O)n(C3CC3)c(=O)c3c(Nc4ccc(I)cc4F)n(C)c(=O)c(C)c32)c1 [Trametinib] (partner 0.02 µM)
Summary of the method: as §1

[4] = compound: CC(C)(C)c1cc(NC(=O)Nc2ccc(-c3cn4c(n3)sc3cc(OCCN5CCOCC5)ccc34)cc2)no1 [Quizartinib] + NC(=O)Nc1cc(-c2cccc(F)c2)sc1C(=O)N[C@H]1CCCNC1 [AZD7762] (partner 0.2 µM)
Summary of the method: as §1

Cell Line	relative viability ([1]; first compound 0.001 µM)	relative viability ([1]; first compound 0.003162 µM)	relative viability ([1]; first compound 0.01 µM)	relative viability ([1]; first compound 0.03162 µM)	relative viability ([1]; first compound 0.1 µM)	relative viability ([2]; first compound 0.002 µM)	relative viability ([2]; first compound 0.006325 µM)	relative viability ([2]; first compound 0.02 µM)	relative viability ([2]; first compound 0.06325 µM)	relative viability ([3]; first compound 0.001 µM)	relative viability ([3]; first compound 0.003162 µM)	relative viability ([3]; first compound 0.01 µM)	relative viability ([3]; first compound 0.1 µM)	relative viability ([4]; first compound 0.001 µM)	relative viability ([4]; first compound 0.003162 µM)	relative viability ([4]; first compound 0.1 µM)	relative viability ([3]; first compound 0.03162 µM)	relative viability ([4]; first compound 0.01 µM)	relative viability ([4]; first compound 0.03162 µM)
NCI-H1299	0.835	0.735	0.797	0.726	0.881	–	–	–	–	–	–	–	–	–	–	–	–	–	–
NCI-H1563	0.719	0.68	0.649	–	0.626	0.632	0.682	0.63	0.65	–	–	–	–	–	–	–	–	–	–
NCI-H1623	–	–	–	–	–	0.599	0.6	0.643	0.604	–	–	–	–	–	–	–	–	–	–
NCI-H1650	0.268	0.584	0.566	–	0.547	0.356	0.412	0.484	0.557	0.608	0.662	0.556	0.564	–	–	–	–	–	–
NCI-H1703	0.3	0.183	0.216	0.154	0.24	–	–	–	–	–	–	–	–	0.155	0.143	0.134	–	–	–
NCI-H2009	0.475	0.799	0.833	0.604	0.737	0.464	0.489	0.46	0.326	0.266	0.251	0.218	0.247	–	–	–	0.246	–	–
NCI-H2023	0.224	0.271	0.216	0.121	0.245	0.361	0.403	0.411	0.422	0.643	0.504	0.533	0.615	–	–	–	–	–	–
NCI-H2228	0.364	0.312	0.456	0.386	0.464	0.304	0.272	0.375	0.338	0.513	0.593	0.484	0.511	–	–	–	0.436	–	–
NCI-H2342	–	–	–	–	–	0.581	0.612	0.584	0.65	0.799	0.83	0.884	0.764	0.505	0.637	0.518	0.9	0.471	0.544
SK-LU-1	0.545	0.547	0.606	0.491	0.588	0.487	0.499	0.566	0.588	0.464	0.372	0.515	0.434	–	–	–	0.394	–	–
SK-MES-1	0.244	0.329	0.391	0.363	0.365	0.584	0.695	0.575	0.256	0.587	0.542	0.553	0.512	–	–	–	0.478	–	–
SW 900	–	–	–	–	–	0.638	0.642	0.674	0.69	0.769	0.943	0.843	0.803	0.711	0.498	0.58	0.899	0.597	0.532
SW 1573	0.474	0.432	0.516	0.325	0.475	0.365	0.305	0.394	0.338	0.594	0.47	0.711	0.655	–	–	–	–	–	–
UMC-11	0.522	0.779	0.836	0.742	0.885	0.3	0.355	0.363	0.328	0.417	0.722	0.714	0.644	–	–	–	0.728	–	–
